Assay results from patent publication US11033526B2 (priority 2015, dated 2021).
Like-named read-outs stand apart in the source and are kept apart here.

How the values were obtained:
[1] = test system: AT3q130 animals (mutant ATXN3); assay: C. elegans assay for motility defects in AT3q130 animals; format: in vivo; details: for mutant ATXN3-mediated neuronal dysfunction (locomotion defects): liquid culture, four day old animals
Experimental: C. elegans assays for motility defects and aggregation. Animals (N2, AT3 WT or AT3q130) were grown in liquid culture in a 96-well plate format, with the chemical compounds, as described above. Four day old animals were transferred from the 96-well plates onto an unseeded NGM plate (equilibrated at 20° C.). Plates were allowed to dry for 1 hour before starting the assays. Motility assays were performed at 20° C. as previously described. Motor behaviour assays were run in triplicates or quadruplicates (n=3 or 4), with a total of at least 150 animals tested per genotype and/or compound. For confocal dynamic imaging and quantification of ATXN3 aggregation, live animals were immobilized with 3 mM levamisole (Sigma, USA) and mounted on a 3% agarose pad. All images were captured on an Olympus FV1000 (Japan) or Zeiss LSM 510 (Germany) confocal microscopes, under a 60× oil (NA=1.35) or 63× water (NA=1.0) objectives. Z-series imaging was acquired for all vehicle- and compound-treated animals, using a 515/514 nm laser excitation line for YFP fusion proteins. The pinhole was adjusted to 1.0 Airy unit of optical slice, and a scan was acquired every˜0.5 μm along the Z-axis. For quantification of aggregates three parameters were measured: area of aggregates/total area; number of aggregates/total area and number of aggregates. Values shown are the mean (normalized to vehicle treated control) of eight or more animals per group, unless noted otherwise.

CMVMJD135 mice [2] = details: cited from earlier work
WT mice = assay: Body weight and motor behaviour of treated WT mice; format: in vivo, mouse
Experimental: (§1) Transgenic mouse model and drug administration. CMVMJD135 mice were generated as described previously. DNA extraction, animal genotyping and CAG repeat size analyses were performed as previously described. The mean repeat size (±s.d.) for all mice used was 130±2. […] Only male mice were used in this study. […] Treatment was initiated at five weeks of age, one week before the expected onset of the first neurological symptoms. The trial was ended at 34 weeks of age, according to the humane endpoints established for the non-treated CMVMJD135 mice. All animal procedures were conducted in accordance with European regulations (European Union Directive 86/609/EEC). Animal facilities and the people directly involved in animal experiments (ATC, SE, ASF, SDS) were certified by the Portuguese regulatory entity-[…]. All of the protocols performed were approved by the Animal Ethics Committee of the Life and Health Sciences Research Institute, University of Minho. Behavioural assessment. […] All behavioural tests started in a pre-symptomatic stage (4 weeks) and were conducted until 30 or 34 weeks of age (FIG. 5a). Neurological tests and general health assessment were performed using the SHIRPA protocol, enriched with the hanging wire test. The dragging of the paws and the stride length were evaluated with footprinting analysis. Motor behaviour was further assessed using the balance beam walk test (12 mm square and 17 mm round beams) and the motor swimming test. All behavioural tests were performed as previously described (Silva-Fernandes, A. et al. Chronic Treatment with 17-DMAG Improves Balance and Coordination in A New Mouse Model of Machado-Joseph Disease. Neurotherapeutics (2014). Body weight was also registered for each evaluation time point.

CMVMJD135 mice [3] = assay: Behavioural assessment of CMVMJD135 mice under chronic oral treatment; format: in vivo, mouse
Experimental: as §1, with “Neurological tests and general health assessment were performed using the SHIRPA protocol, enriched with the hanging wire test.” left out, “All behavioural tests were performed as previously described (Silva-Fernandes, A. et al. Chronic Treatment with 17-DMAG Improves Balance and Coordination in A New Mouse Model of Machado-Joseph Disease. Neurotherapeutics (2014). Body weight was also registered for each evaluation time point.” left out

For `CN1C[C@H](C(=O)N[C@]2(C)O[C@@]3(O)[C@@H]4CCCN4C(=O)[C@H](Cc4ccccc4)N3C2=O)C[C@@H]2c3cccc4[nH]cc(c34)C[C@H]21` [dihydroergotamine], the “mutant ATXN3-mediated neuronal dysfunction (locomotion defects)” value [1] was “ameliorated”.
With `CN(C)CCC[C@@]1(c2ccc(F)cc2)OCc2cc(C#N)ccc21` [escitalopram] the “mutant ATXN3-mediated neuronal dysfunction (locomotion defects)” value [1] was “beneficial effects”.
In the case of `CC(C)NCC(O)COc1cccc2[nH]ccc12` (stereo not drawn) [pindolol], the “mutant ATXN3-mediated neuronal dysfunction (locomotion defects)” value [1] is reported as “ameliorated”.
In the case of `CO[C@H]1/C=C\C=C(/C)C(=O)NC2=CC(=O)C(NCCN(C)C)=C(C[C@@H](C)C[C@H](OC)[C@H](O)[C@@H](C)/C=C(\C)[C@@H]1OC(N)=O)C2=O` [17-DMAG], the “delay of manifestation of motor swimming defects” value (CMVMJD135 mice [2]; CMVMJD135 mice, previous findings (Silva-Fernandes 2014)) is given as “eight” and the “percentage of effect in motor swimming test” value (CMVMJD135 mice [2]; at 30 weeks, CMVMJD135, previous findings (Silva-Fernandes 2014)) is given as 33%.
In the case of `CN1C[C@H](CO)C=C2c3cccc4[nH]cc(c34)C[C@H]21` [lysergol], the “mutant ATXN3-mediated neuronal dysfunction (locomotion defects)” value [1] is reported as “ameliorated”.
For `O=C1CC2(CCCC2)CC(=O)N1CCCCN1CCN(c2ncccn2)CC1` [buspirone], the “mutant ATXN3-mediated neuronal dysfunction (locomotion defects)” value [1] was “ameliorated”.
In the case of `CN(C)CCCC1(c2ccc(F)cc2)OCc2cc(C#N)ccc21` (stereo not drawn) [citalopram], the “behaviour of treated WT mice versus untreated littermates” value (WT mice) is reported as “behaved similarly”, the “beam walk test, WT mice” value (WT mice; 8 mg/kg) is reported as “No differences” and the “body weight of WT mice” value (WT mice; 8 mg/kg) is reported as “significant increase”. The “motor swimming test, WT mice” value (WT mice; 8 mg/kg) was “No differences”, the “body weight of WT mice” value (WT mice; 13 mg/kg) was “significant increase” and the EC50 ([1]; Caenorhabditis elegans, dose-response profile, read-out: half-maximal effective concentration (EC50), locomotion defects) was 45 µM. For the same compound, the “delay of manifestation of motor swimming defects” value (CMVMJD135 mice [3]; CMVMJD135 mice) was “at least 20 weeks” and the “percentage of effect in motor swimming test” value (CMVMJD135 mice [3]; at 30 weeks, CMVMJD135) was 79%.
